Columns and labels:
[1] = tested on: VSV-GP (vesicular stomatitis virus particle bearing the EBOV GP); assay type: cell-based
[2] = tested on: VSV-G (VSV bearing its native envelope glycoprotein G); assay type: cell-based, vesicular stomatitis virus; Vero host cells

Row | Compound | activity against VSV-GP entry (in words) [1] | activity against VSV-G (in words) [2] | inhibition of VSV-GP entry [1] | potency against VSV-GP compared with 1-Chol and 2-Chol ([1]; 20 µM)
1 | CC(C)CCC[C@@H](C)[C@H]1CC[C@H]2[C@@H]3CC=C4C[C@@H](O)CC[C@]4(C)[C@H]3CC[C@]12C [cholesterol, reference compound] | relatively modest effects |  |  | 
2 | KKKKGSGC(Chol) ^b [Peptide 3-Chol] | active | active | > 90% | much less potent

From publication PMC3822755 (Bioorganic & medicinal chemistry letters, 2013)
